Assays:
Format in all cases: cell-based
[1] = test system: GIRK2 PIP S148T mutant channel; assay: whole-cell patch clamp, GIRK2 PIP S148T mutant channel; settings: GIRK2 PIP S148T compared with GIRK2 PIP L257W
Protocol: Point mutations were introduced by Quickchange site directed mutagenesis kit (Stratagene). The GIRK2 PIP mutant was generated by overlap-PCR method. […] Mutations were confirmed by automated DNA sequencing methods. […] Cells were plated in a 12 well dish, and were transiently transfected using Lipofectamine 2000 (Invitrogen). After 12-24 hrs, cells were re-plated to 12-mm glass coverslips coated with poly-D-[…] microgram/ml). […] The cells were co-transfected with 0.04 micrograms of eYFP cDNA to identify transfected cells. 0.8 micrograms of Muscarinic Receptor 2 (M2R) was also co-transfected for experiments with Carbachol. […] Whole-cell patch clamp recordings were performed 24-72 hrs after transfection. […] Alcohols, 5 μM Carbachol, and 1 mM BaCl2 (diluted in 20K solution) were applied from outside the cell with the rapid perfusion system (Warner Instruments). […] Current-voltage relationships also were obtained from the ramp protocol. This protocol was used to measure the inwardly rectifying currents at -100 mV and to ensure stability of recording by monitoring a reversal potential and inward rectification. […] Alcohol and Carbachol modulated currents were measured by averaging two consecutive current readings upon reaching steady state, and subtracting the averaged basal current before and after the application of modulator.

[2] = target: T1, Kir2 homotetramer channels (Mus musculus, UniProt P35561); assay: patch-clamp determination of ion transport activity: inhibition of Kir2 channels (Kir2.1 expressed in HEK293 cells); settings: as stated in the detailed description; read-out: IC50 for inhibition of Kir 2.1 channels
T1 construct: expressed in transfected cells; host or cells: HEK293
Text: (§1) It has been determined that inwardly rectifying potassium (Kir) channels are regulated directly by small molecule alcohol compounds. Three-dimensional crystallographic analysis of Kir channels has elucidated atomic details of binding pocket interactions with 2-methyl-2,4-pentanediol (MPD). MPD inhibits Kir2 channel activity and activates Kir3 channel activity. Amino acid substitutions in this hydrophobic pocket of the channel protein may alter the response to MPD. As determined by patch-clamp determinations of ion transport activity, a racemic mixture of 2-methyl-2,4-pentanediol, (±)MPD, activates Kir3 channels with an EC50 of >200 mM and inhibits Kir2 homotetramer channels with an IC50 of ˜200 mM. […] Bupivacaine inhibits Kir3.1/3.4 and Kir3.1/3.2 channels with an IC50 of ˜20-40 micromolar.
The effect of MPD on Kir2 channel activity was analyzed further. […] The fractional current remaining is plotted as a function of MPD concentration. The response for each cell was fit with the Hill equation. The average IC50 and Hill coefficients are shown (n=6).

[3] = target: T2, Kir3 channels (Mus musculus, UniProt P48542); assay: patch-clamp determination of ion transport activity: activation of Kir3 channels; settings: read-out: Maximal activation of Kir3 channels relative to that of 100 mM EtOH
T2 construct: other: patch-clamp; other: 100 mM
T2 sequence (P48542 1-425): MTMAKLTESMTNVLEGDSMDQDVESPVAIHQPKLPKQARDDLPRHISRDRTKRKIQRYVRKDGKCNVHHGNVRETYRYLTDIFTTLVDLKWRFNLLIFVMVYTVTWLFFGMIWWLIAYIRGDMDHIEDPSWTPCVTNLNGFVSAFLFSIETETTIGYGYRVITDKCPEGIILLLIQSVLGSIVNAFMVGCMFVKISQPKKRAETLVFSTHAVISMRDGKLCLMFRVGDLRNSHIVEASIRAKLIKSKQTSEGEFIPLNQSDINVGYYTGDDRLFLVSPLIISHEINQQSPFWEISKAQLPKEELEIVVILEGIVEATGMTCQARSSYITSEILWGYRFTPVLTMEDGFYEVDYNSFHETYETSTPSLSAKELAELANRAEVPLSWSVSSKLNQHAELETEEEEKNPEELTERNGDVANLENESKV
Text: as §1
(§2) The following also were observed. Maximal activation of Kir3 channels by 100 mM (±)MPD is 280% that of 100 mM EtOH. Maximal activation of Kir3 channels by 100 mM R(−)2 methyl-2,4-pentanediol is 60% that of 100 mM (±)MPD. Maximal activation of Kir3 channels by 100 mM 3-methyl-1,3,5-pentanetriol is 70% that of 100 mM (±)MPD. Maximal activation of Kir3 channels by 100 mM 2,5-dimethyl-1,2,6-hexanetriol is 70% that of 100 mM (±)MPD. Maximal activation of Kir3 channels by 100 mM (±) 2,4-pentanediol is 50% that of 100 mM (±)MPD.

[4] = test system: Kir3 channels; assay: as above; settings: Kir3 activation or Kir2 inactivation
Text: as §1, §2

T1 sequence (P35561 whole entry): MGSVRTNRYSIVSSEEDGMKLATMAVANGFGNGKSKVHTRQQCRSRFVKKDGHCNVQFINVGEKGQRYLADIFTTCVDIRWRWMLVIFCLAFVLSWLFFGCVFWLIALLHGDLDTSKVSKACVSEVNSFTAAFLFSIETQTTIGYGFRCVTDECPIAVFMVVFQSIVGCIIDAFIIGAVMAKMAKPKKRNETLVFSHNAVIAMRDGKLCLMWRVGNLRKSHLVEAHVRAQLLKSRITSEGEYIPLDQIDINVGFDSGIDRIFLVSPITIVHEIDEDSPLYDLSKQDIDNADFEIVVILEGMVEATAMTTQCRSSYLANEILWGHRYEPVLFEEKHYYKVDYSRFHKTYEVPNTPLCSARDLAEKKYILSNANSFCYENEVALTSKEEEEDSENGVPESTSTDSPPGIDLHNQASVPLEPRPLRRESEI

| IC50 [2] [mM] | Emax at 100000 µM [3] [%] | Molecule | change in sensitivity to inhibition when Ser at the P-loop is mutated to Thr [1] [fold] | time course of inactivation or activation after application [4] |
| --- | --- | --- | --- | --- |
| – | – | 1-propanol [1-PrOH] | ~100 | – |
| ~100 | 280 | CC(O)CC(C)(C)O (racemic) [MPD, 2-methyl-2,4-pentanediol] | ~20 | within seconds |

Reference: patent US8097422B2, “Kir channel modulators” (Salk Institute for Biological Studies, priority 2007, dated 2012)
